Data set [1] is described as follows: Photostability testing under illumination of 4500 Lx of ingredient and 1% premix (HPLC). As to conditions: for Residual amount of active ingredient: 4500 Lx. Format: physicochemical. An excerpt:
Preparation of a sample of 1% premix of an ingredient: 1 g of an ingredient was respectively weighed out and evenly mixed with 99 g of corncob meal in a mixer to give a sample of 1% premix of an ingredient for testing.
Photostability testing: The samples of an ingredient and 1% premix thereof were respectively spread in petri dishes to form thin layers of <5 mm, and kept under an illumination of 4500 Lx. Three replications for a sample were sampled in parallel on day 5 and day 10 for HPLC analysis.
25.0 mg of an ingredient was accurately weighed out and dissolved in an appropriate amount of methanol by ultrasonication. The solution was then transferred to a volumetric flask and diluted to 25 mL with methanol to give a stock solution. The samples from the stock solution were diluted with methanol respectively to a concentration of 100 ppm, 500 ppm, and 1000 ppm of work solution, and then the working solutions were filtered by 0.22 μm organic membranes. Between the concentration of a sample and the response value of HPLC peak area thereof, the linearity was adjusted and detected to give a standard curve.
2.3: Preparation of Sample Solution 25.0 mg of an ingredient and 2.0000 g of a sample of 1% premix thereof were respectively accurately weighed out, and dissolved in 25 mL of methanol by ultrasonication for 10 minutes. The resulting solutions were filtered by organic membranes and then analyzed by HPLC. 2.4: Testing Conditions for HPLC • Column: Symmetry Cis column (Waters; 250 mm*4.6 mm, 5 μm). • Mobile phase: 0.02% phosphoric acid:methanol=5:95 (v:v). • Wavelength: 235 nm. • Temperature of the Column: 25° C. • Injection volume: 10 μL. • Flow rate: 1 mL/min. 3: Results

The nature of data set [2]: Long-term stability in feeds at room temperature (25° C.±2° C., RH 60%±10%; HPLC). The format is physicochemical. As to conditions: for stability / content in feeds at room temperature (in words): during the testing period. The source says: Feeds: ZUSF's premixed feed (A mixture of crushed Feed A and crushed Feed B at a weight ratio of 2:1, wherein Feed A was a 5.33% multi-premixed feed for piglets from ZUSF's Hao-Ru-Zhen-Jing, and B was a 2.67% multi-premixed feed for piglets from ZUSF's Hao-Ru-Zhen-Jing); creep feed for piglets from CP FEED; INSIGHTER's feed for broiler; 4% premixed feed from GUANGDONG CO-POWER.
Preparation of a sample of 1% premix of Ingredient: 1 g of an ingredient was respectively weighed out and evenly mixed with 99 g of corncob meal in a mixer to give a sample of 1% premix of an ingredient.
Preparation of a sample of 500 ppm feed of an ingredient: The sample of 1% premix of an ingredient was diluted step by step using the ZUSF's remixed feed to 5000 ppm and 500 ppm to give the sample of 500 ppm feed of an ingredient for later testing.
Preparation of a sample of 100 ppm feed of an ingredient: sample of 1% premix of an ingredient was diluted step by step using the creep feed for piglets from CP FEED to 1000 ppm and then 100 ppm to give the sample of 100 ppm feed of an ingredient for later testing.
Preparation of a sample of 100 ppm feed of an ingredient: The sample of 1% premix of an ingredient was diluted step by step using the INSIGHTER's feed for broiler to 1000 ppm and 100 ppm to give the sample of 100 ppm feed of an ingredient for later testing.
Preparation of a sample of 2000 ppm feed of an ingredient: The sample of 1% premix of an ingredient was diluted step by step using the 4% premixed feed from GUANGDONG CO-POWER to 5000 ppm and 2000 ppm to give the sample of 2000 ppm feed of an ingredient for later testing.
Method: Three replications of each feed sample were tested at the condition of 25° C.±2° C. and RH 60%±10%, wherein the replications of each feed sample were sampled in parallel for HPLC analysis on day 5, day 10, day 15, day 30, day 60, and day 90.
25.0 mg of an ingredient was accurately weighed out and dissolved in an appropriate amount of methanol or n-hexane by ultrasonication. The solution was then transferred to a volumetric flask and diluted to 50 mL to give a 500 ppm (by wt.) stock solution. The samples from the stock solution were diluted with methanol or n-hexane respectively to a concentration of 10 ppm, 25 ppm, 50 ppm, 100 ppm, and 250 ppm of work solution, and then the working solutions were filtered by 0.22 μm organic membranes. Between the concentration of a sample and the response value of HPLC peak area thereof, the linearity was adjusted and detected to give a standard curve.
5.0000 g of the samples sampled at different time intervals were respectively accurately weighed out, and dissolved in 25 mL of methanol or n-hexane by ultrasonication for 10 minutes. The resulting solutions were filtered by organic membranes and then analyzed by HPLC.
• Equipment: Waters e2695 with PDA detector. • Mobile phase: 0.02% phosphoric acid:methanol=5:95 (v:v). • Column: Symmetry Cis column (Waters; 250 mm×4.6 mm, 5 μm). • Wavelength: 235 nm. • Temperature of the Column: 25° C. • Injection volume: 10 μL. • Flow rate: 1 mL/min. Normal Phase Chromatography: • Equipment: Shimadzu LC-14C/SPD-15C. • Column: SuperSil NH2 column ([…]; 250 mm×4.6 mm). • Mobile phase: n-hexane:isopropanol=60:40 (v:v). • Wavelength: 235 nm. • Temperature of the Column: 25° C. • Injection volume: 20 μL. • Flow rate: 1 mL/min. 3: Results

The mark [3] stands for this setting: 1% Premix of an ingredient (corncob meal), Day 5.
The mark [4] stands for this setting: 1% Premix of an ingredient (corncob meal), Day 10.
Setting [5] is: 100 ppm in INSIGHTER's broiler feed, Day 5.
[6] abbreviates: 100 ppm in INSIGHTER's broiler feed, Day 15.
The mark [7] stands for this setting: 100 ppm in INSIGHTER's broiler feed, Day 30.
The mark [8] stands for this setting: 100 ppm in INSIGHTER's broiler feed, Day 60.
Setting [9] is: 100 ppm in creep feed for piglets from CP FEED, Day 5.
The mark [10] stands for this setting: 100 ppm in creep feed for piglets from CP FEED, Day 15.
[11] abbreviates: 100 ppm in creep feed for piglets from CP FEED, Day 30.
[12] abbreviates: 100 ppm in creep feed for piglets from CP FEED, Day 60.
The mark [13] stands for this setting: 100 ppm in creep feed for piglets from CP FEED, Day 90.
The mark [14] stands for this setting: 500 ppm in ZUSF's premixed feed, Day 5.
The mark [15] stands for this setting: 500 ppm in ZUSF's premixed feed, Day 15.
The mark [16] stands for this setting: 500 ppm in ZUSF's premixed feed, Day 30.
Where [17] appears, read: 500 ppm in ZUSF's premixed feed, Day 60.
Setting [18] is: 500 ppm in ZUSF's premixed feed, Day 90.

Here are results for three compounds from US12673915B2, “Precursor compound of hexahydro-beta-acid component compound, feed composition and use thereof” (WISORIG TECHNOLOGIES PTE. LIMITED, priority 2020, dated 2026).

Turning to `CC(=O)OC1=C(CCC(C)C)C(=O)C(CCC(C)C)(CCC(C)C)C(O)=C1C(=O)C(C)C` [hexahydro-colupulone mono-acetate, Hexahydro-Colupulone Mono-Acetate], the “Residual amount of active ingredient” value in data set [1] (setting [3]) is reported as 99.28%; in data set [1] (setting [4]), 98.82%; in data set [1] (Ingredient, Day 5) it was 98.97%; in data set [1] (Ingredient, Day 10), 98.31%; in data set [2] (setting [5]) it was 94.93%; in data set [2] (setting [6]), 81.77%. In addition, the “Residual amount of active ingredient” value is 72.30% in data set [2] (setting [7]); 71.97% in data set [2] (setting [8]); 97.69% in data set [2] (setting [9]); 96.27% in data set [2] (setting [10]); 96.22% in data set [2] (setting [11]); 96.16% in data set [2] (setting [12]). Further, the “Residual amount of active ingredient” value turned out to be 95.08% in data set [2] (setting [13]); 96.65% in data set [2] (setting [14]); 96.65% in data set [2] (setting [15]); 96.84% in data set [2] (setting [16]); 95.23% in data set [2] (setting [17]); 85.29% in data set [2] (setting [18]). Besides, the “stability / content in feeds at room temperature (in words)” value in data set [2] is reported as “relatively poor in some of the feeds”.

In the case of `CCCC(=O)OC1=C(CCC(C)C)C(=O)C(CCC(C)C)(CCC(C)C)C(O)=C1C(=O)C(C)C` [hexahydro-colupulone mono-butyrate], the “Residual amount of active ingredient” value in data set [1] (setting [3]) is reported as 99.14%; in data set [1] (setting [4]), 98.08%; in data set [1] (Ingredient, Day 5), 99.99%; in data set [1] (Ingredient, Day 10), 99.10%; in data set [2] (setting [5]) it was 99.00%; in data set [2] (setting [6]), 98.79%. Also, the “Residual amount of active ingredient” value is given as 98.39% in data set [2] (setting [7]); 98.11% in data set [2] (setting [8]); 98.19% in data set [2] (setting [9]); 96.62% in data set [2] (setting [10]); 95.70% in data set [2] (setting [11]); 95.47% in data set [2] (setting [12]). Besides, the “Residual amount of active ingredient” value in data set [2] (setting [13]) turned out to be 95.77%; in data set [2] (setting [14]), 100.31%; in data set [2] (setting [15]), 98.23%; in data set [2] (setting [16]) it was 96.01%; in data set [2] (setting [17]), 96.13%; in data set [2] (setting [18]), 95.29%. Besides, the “Residual amount of active ingredient” value in data set [2] (2000 ppm in 4% premixed feed from GUANGDONG CO-POWER, Day 5) came to 98.62%; in data set [2] (2000 ppm in 4% premixed feed from GUANGDONG CO-POWER, Day 15), 95.56%; in data set [2] (2000 ppm in 4% premixed feed from GUANGDONG CO-POWER, Day 30), 95.48%; in data set [2] (2000 ppm in 4% premixed feed from GUANGDONG CO-POWER, Day 60) it was 96.34%; in data set [2] (2000 ppm in 4% premixed feed from GUANGDONG CO-POWER, Day 90), 95.41%.

On to `CC(C)CCC1=C(O)C(C(=O)C(C)C)=C(O)C(CCC(C)C)(CCC(C)C)C1=O` [hexahydro-colupulone, reference compound], for which the “Residual amount of active ingredient” value was 90.11% in data set [1] (setting [3]); 83.62% in data set [1] (setting [4]); 92.71% in data set [1] (Ingredient, Day 5); 85.66% in data set [1] (Ingredient, Day 10); 98.28% in data set [2] (setting [9]); 96.93% in data set [2] (setting [10]). In addition, the “Residual amount of active ingredient” value in data set [2] (setting [11]) turned out to be 93.07%; in data set [2] (setting [12]) it was 77.54%; in data set [2] (setting [13]) it was 68.28%. The “change of active ingredient” value in data set [1] (active ingredient of 1% premix, photostability testing, day 10) is given as “more than 15%”. For the same compound, the “stability / content in feeds at room temperature (in words)” value in data set [2] is “decreased substantially”.
